Legend:
Format in all cases: cell-based, human
[1] = tested on: SW620V cells (vincristine-resistant); assay: Neutral red uptake viability assay, SW620V; details: 72 h; for survival rate: n = 3, ± SD; for IC50: n = 3, read-out: Cytotoxic activity IC50 (95% CI)
Description: (§1) In general, compounds 4a–e exerted little or no cytotoxic effect on either SW620 or multidrug-resistant sublines even at 10 μM, with the remarkable exception of SW620C (cisplatin-selected variant of SW620) cells, which turned out to be relatively susceptible toward ferrocenyl 4a–c. […] This trend may reflect steric or electronic contributions to cellular uptake or interaction with intracellular targets. […] However, since E/Z isomeric data are currently available only for compound 4c, this hypothesis requires validation. To quantify this effect, IC50 values were determined (Table ). […]
(§2) The normal lung fibroblast MRC-5 and colorectal adenocarcinoma SW620 cell lines used in this experiment were purchased from American Type Culture Collection (USA) via LGC […]
(§3) Standards. Multidrug-resistant variants of SW620 cells were developed in our laboratory as described previously.10, 11 All cells were cultured under standard conditions (37°C, 5% CO2, 100% humidity) in high-glucose DMEM supplemented with GlutaMaxTM, HEPES (ThermoFisher Scientific, USA), and 10% fetal bovine serum (EURx, Poland). Cells were routinely tested for potential Mycoplasma contamination using the MycoProbe Mycoplasma Detection kit (R&D System, USA).
(§4) In total, 104 cells in 100 µL of complete medium were plated per well of a 96-well plate and left overnight to allow cells to adhere to the surface. Then, the cells were exposed to a desired concentration of tested compound(s). Stock solutions were prepared in DMSO and used immediately. The final DMSO concentration was constant and nontoxic (0.1% v/v). After 70-h incubation, neutral red was added to the final concentration of 1 mM. After another 2 h, the medium was aspirated, and cells were washed twice with PBS. Dye was released using 100 µL of a solubilizer (1% acetic acid in 50% ethanol) on an orbital shaker (10 min). Absorbance was read at 540 nm using EnVision Multilabel Plate Reader (Perkin Elmer, USA). Results were expressed as % of control. The IC50 parameters were calculated using GraphPad Prism version 10 (GraphPad Software, Boston, Massachusetts USA).
(§5) The enhancement of reversal potency (ERP) value determination
(§6) For MDR reversal assays, cytotoxic agents were co-administered with compounds 4a–4e at equimolar concentrations in a range of 10 nM to 100 µM. IC₅₀ values were determined in ABCB1-overexpressing SW620 cell line variants. The enhancement of reversal potency (ERP) was calculated using the following formula: ERP = IC₅₀(drug)MDR / IC₅₀(drug + compound)MDR. All experiments were performed in triplicate (n = 3).

SW620 cells [2] = assay: Neutral red uptake viability assay, SW620; details: for survival rate: 72 h, n = 3, ± SD; for IC50: SW620, 72 h, n = 3, read-out: Cytotoxic activity IC50 (95% CI)
Description: as §1, with “To evaluate this aspect, we investigated the viability of SW620 colon cancer cells and their multidrug-resistant variants (overexpressing ABCB1, ABCC1, and ABCG2) exposed to 1 and 10 μM 4a–e using a neutral red uptake assay (Table ). In” for “In”
as §2, §3
as §4, with “Massachusetts USA). […]” for “Massachusetts USA).”
All experiments were performed in triplicate (n = 3).

SW620 cells [3] = assay: Synergy determination (Bliss model, SynergyFinder), SW620;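 also: score below −10 means likely antagonism and −10 to 10 means additive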
Text: In an ideal setting, the effect of cell exposure to a combination of a chemotherapeutic and an MDR inhibitor should be synergistic. […] The highest synergy scores identified an optimal concentration range where the combination exerted its maximal effect. […] In cisplatin-resistant SW620C cells, the low or lack of synergy observed for most compounds may be due to the additive effects of cisplatin and 4 rather than a true synergistic interaction. […]
To evaluate the potential interactions between putative ABC inhibitors and anticancer drugs, we utilized the Bliss independence model, as implemented in the SynergyFinder web application.13, 14 Synergy scores and the most synergistic area scores were calculated based on the normalized dose–response matrices. A synergy score below −10 indicates likely […]
above 10 is indicative of likely synergistic interactions.
All experiments were performed at least three times, and the data were statistically analyzed

[4] = tested on: ABCB1-overexpressing SW620D cells; assay: MDR reversal assay (ERP), SW620D; details: for ERP value, doxorubicin + compound: SW620D (xlsx); for ERP = IC50(drug)MDR/IC50(drug+4)MDR: doxorubicin, SW620D
Text: We investigated the potency of 4a–e to inhibit ABC transporters (ABCB1, ABCC1, and ABCG2) by determining their enhancement of reversal potency (ERP) values. ERP represents fold changes in the IC50 values of anticancer drugs in multidrug-resistant cancer sublines (ABCB1-overexpressing SW620D, SW620E, and SW620V; ABCC1-overexpressing SW620M; ABCG2-overexpressing SW620C and SW620Mito) exposed to a combination of the investigated compounds and anticancer agents at equimolar concentrations, compared with values obtained with drugs alone (Tables S2 and S3 and Figure ).
as §3, §4, §5, §6

| Compound | survival rate ([1]; 1 μM) | survival rate ([1]; 10 μM) | IC50 [1] | survival rate (SW620 cells [2]; SW620, 1 μM) | survival rate (SW620 cells [2]; SW620, 10 μM) | IC50 (SW620 cells [2]) | synergy score (in parentheses) (SW620 cells [3]; drug cisplatin + additive) | synergy score (in parentheses) (SW620 cells [3]; drug doxorubicin + additive) | synergy score (in parentheses) (SW620 cells [3]; drug etoposide + additive) | synergy score (in parentheses) (SW620 cells [3]; drug methotrexate + additive) | synergy score (in parentheses) (SW620 cells [3]; drug mitoxantrone + additive) | synergy score (in parentheses) (SW620 cells [3]; drug vincristine + additive) | ERP value, doxorubicin + compound [4] | ERP = IC50(drug)MDR/IC50(drug+4)MDR [4] |
| --- | --- | --- | --- | --- | --- | --- | --- | --- | --- | --- | --- | --- | --- | --- |
| O=C1N/C(=C\c2ccccc2-[c-]2cccc2)C(=O)N2CCC[C@@H]12.[Fe+2].c1cc[cH-]c1 [(S,Z)-4b] | 92 ± 0.9% | 95 ± 2.4% | 48.8 µM | 91 ± 8.0% | 84 ± 13% | > 100 µM | −5.00 | −2.67 | −5.23 | 3.26 | −3.17 | 5.77 | 2.34 | 2.34 |
| O=C1N/C(=C/c2ccccc2)C(=O)N2CCC[C@@H]12 [(S,E)-4e] | 95 ± 2.9% | 95 ± 3.3% |  | 96 ± 3.4% | 96 ± 2.2% |  | −4.17 | −4.78 | −1.15 |  | −3.41 |  | 0.77 | 0.77 |
| O=C1N/C(=C\[c-]2cccc2)C(=O)N2CCC[C@@H]12.[Fe+2].c1cc[cH-]c1 [(S,Z)-4a] | 94 ± 0.7% | 94 ± 2.5% | > 100 µM | 95 ± 2.2% | 88 ± 6.0% | > 100 µM | −4.74 | −4.15 | −4.45 | −5.99 | −1.66 | −0.36 | 2.90 | 2.90 |
| O=C1N/C(=C/c2cccc(-[c-]3cccc3)c2)C(=O)N2CCC[C@@H]12.[Fe+2].c1cc[cH-]c1 [(S,E)-4c] | 96 ± 1.8% | 94 ± 0.8% | > 100 µM | 95 ± 3.4% | 95 ± 6.0% | > 100 µM | −4.66 | −1.89 | −4.80 | −4.31 | 0.86 |  | 0.77 | 0.77 |
| O=C1N/C(=C\c2ccc(-[c-]3cccc3)cc2)C(=O)N2CCC[C@@H]12.[Fe+2].c1cc[cH-]c1 [(S,Z)-4d] | 94 ± 2.9% | 95 ± 3.2% | > 100 µM | 97 ± 3.0% | 97 ± 2.1% | > 100 µM | −2.46 |  | 0.64 | −2.64 | -1.93 | -1.29 | 2.86 | 2.86 |
| O=C1N/C(=C\c2ccccc2)C(=O)N2CCC[C@@H]12 [(S,Z)-4e] | 98 ± 0.9% | 99 ± 1.4% |  | 94 ± 5.4% | 92 ± 5.0% |  | −3.94 | −3.90 | −3.96 |  | 1.87 |  | 0.70 | 0.70 |
